Measured values published in patent US8795705B2, “Dermatologic compositions comprising pyrrolidone-5-carboxylic acid and at least one entity chosen from citrulline, arginine and asparagine, and uses thereof in the treatment of atopic dermatitis” (Galderma Research & Development, priority 2007, dated 2014).
Where a name gives a salt, the structure may show the parent alone.

Assay: Assessment of hygroscopic properties: residual water weight of solutions as a function of time in a thermal container
Format: physicochemical
Conditions: 50° C., humidity 30%, each compound at 5% in water, after 120 minutes, versus water as negative control (FIG. 1)
Method: Each compound was dissolved in water (w/w) to obtain a 5% solution. To prepare a 5% two-amino acid solution, the L-arginine powder was dissolved directly in the 5% PCA sodium salt solution (w/w). To assess the hygroscopic properties of amino acids, we studied the residual water weight of different solutions as a function of time. We determined the weight of residual water in each solution after different times in an atmosphere in which temperature and humidity were controlled in a thermal container (Vötsch VC0018). The temperature used for our assays was initially set at 50° C. and later at 30° C. to approximate skin conditions more closely. Humidity was set at 30%. Using these parameters, we determined the weight of each solution before heating it and at different times during the heating. The heating lasted for 120 minutes at 50° C. and data was recorded from 45 to 120 minutes. At 30° C. the heating lasted for 135 minutes and data was recorded from 90 to 135 minutes. The residual weight expected at the end of the study which corresponds to the weight of the compound in the solution was calculated (for example, if the initial total weight for a 5% solution was 100 mg, the weight of the compound was 5 mg). The residual water weight of each solution was obtained by subtracting the expected weight of the compound from the total weight of the solution at different times. […]

SMILES	percentage of residual water weight (evaporation of the water contained in the solutions)
N=C(N)NCCC[C@H](N)C(=O)O [L-Arginine]	decreased the evaporation of the water
O=C1CCC(C(=O)O)N1 (centres unmarked) [PCA Na, 2-Pyrrolidone-5-carboxylic acid sodium salt]	decreased the evaporation of the water
